Measured values: patent US12455218B2, “Methods and compositions for reversing platelet clumping” (Truvian Sciences, Inc., priority 2019, dated 2025)
“Also recorded” adds a separate entry of the source.

How the values were obtained:
Assay type in all cases: cell-based
white blood cells = assay: White blood cell morphology, AO stain, fluorescence microscopy; conditions: FIG. 2, fingerstick LiHep blood, 60 M EDTA, 3×EDTA sample 60 mM
Description: Next, it was examined whether EDTA exposure impacts blood cell morphology. Particularly, fresh fingerstick blood samples were collected into EDTA and LiHep blood collection tubes. Concentrated EDTA was dried for at least one hour at room temperature in microcentrifuge tubes using a vacuum drying oven. A 200 uL fraction of the LiHep sample (“1×”) was added to the previously prepared vacuum-dried EDTA resulting in a final concentration of 20 mM EDTA in blood. Another 200 uL fraction of the LiHep sample (“3×”) was added to the previously prepared vacuum-dried EDTA resulting in a final concentration of 60 mM EDTA in blood. […] Cells were imaged using the fluorescence setting on an Echo Revolve microscope. […] To capture the green fluorescence of AO, which labeled the nuclei of white blood cells, a blue LED light source with excitation filter at 470/40 nm was paired with emission filter at 525/50 nm, with a dichroic mirror at 495 nm. To capture the red fluorescence of AO, which labeled the cytoplasmic compartments of white blood cells, the same blue LED light source was paired with emission filter at 635/60 nm with a dichroic mirror at 600 nm. […]
Particularly, fresh venipuncture blood samples were collected into EDTA and LiHep blood collection tubes as described above. […] Cells were imaged using the fluorescence setting on an Echo Revolve™ microscope. […]

[1] = system: platelet clumps in LiHep blood samples; assay: Platelet count per field of view in blood smears of LiHep blood, Azure B stain; conditions: for recovery of platelet counts: FIG. 3, fingerstick LiHep blood, vortexed, Azure B
Description: A series of anti-coagulants are tested for their respective effect in reversing platelet clumping formed in blood samples. Fresh fingerstick blood samples were collected into EDTA and LiHep blood collection tubes as described above. Concentrated EDTA was dried for at least one hour at room temperature in microcentrifuge tubes using a vacuum drying oven. Immediately following collection, a 200 uL fraction of the LiHep sample (“LiHep+EDTA”) was passed through two separate EDTA SAFE-T-FIL™ capillary tubes for a double exposure to the EDTA anticoagulant resulting in a final concentration of about 8.8 mM EDTA in blood Another 200 uL fraction (“LiHep+TruEDTA”) was added to the previously prepared vacuum-dried EDTA resulting in a final concentration of 20 mM EDTA in blood. At 30 minutes post collection, another 200 uL fraction of the LiHep sample (“LiHep+EDTA 30 min”) was passed through two separate EDTA SAFE-T-FILL™ capillary tubes for a double exposure to the EDTA anticoagulant. All samples were pulse vortexed with three, five-second bursts at the maximum vortex setting immediately following addition to EDTA. At 30 minutes post collection, all samples were then stained using an Azure B solution from the Differential Quik Stain™ Kit (Modified Giemsa) from Polysciences, Inc. Azure B was added to blood sample at a 1:1 ratio and pipette mixed. A standard blood smear was performed on all samples. Cells were imaged using the bright field setting on an Echo Revolve™ microscope at 20× magnification. Between six to seven different fields of view were captured. Images were analyzed using Image J and the number of platelets present in each field of view was manually counted. Error bars indicate standard deviation of the data set.
Particularly, fresh fingerstick blood samples were collected into EDTA and LiHep blood collection tubes as described above. Concentrated EDTA was dried for at least one hour at room temperature in microcentrifuge tubes using a vacuum drying oven. […] Images were analyzed using Image J and the number of platelets present in each field of view was manually counted. […]

[2] = system: platelets in venipuncture and fingerstick blood; assay: Platelet clumping after blood collection into anticoagulant tubes; conditions: venipuncture and fingerstick blood collected in anticoagulant tubes
Description: Blood used in the following examples came from either venipuncture or fingerstick samples. Standard phlebotomy practices were followed to collect donor venipuncture blood in either BD Vacutainer′ EDTA blood collection tubes or BD Vacutainer′ PST lithium heparin plasma separation blood collection tubes. Standard phlebotomy practices were followed to collect donor fingerstick blood in either LiHep SAFE-T-FILL™ tubes or EDTA SAFE-T-FIL™tubes. All blood samples were stored at room temperature until use. Samples were analyzed within 12 hours of blood collection.
Platelet clumping appeared to occur spontaneously following blood collection. For all studies, an EDTA control sample was used in which blood from either venipuncture or fingerstick were collected into EDTA tubes. EDTA venipuncture control samples were collected into EDTA blood collection tubes from the same donor using the same port as the lithium heparin samples.

[3] = system: platelet clumps in LiHep blood samples; assay: Platelet count per field of view in blood smears of LiHep blood, acridine orange (AO) stain; conditions: for declumping activity / increase in platelet count due to reversal of platelet clumping: Example 8, FIG. 7 and 8, LiHep blood
Description: Particularly, fresh venipuncture blood samples were collected into EDTA and LiHep blood collection tubes as described above. Concentrated EDTA was dried for at least one hour at room temperature in microcentrifuge tubes using a vacuum drying oven. […] This sample was pulse vortexed with three, ten second bursts at the maximum vortex setting. […] This sample was sonicated in a water bath sonicator for 1 minute. […] This sample was pipette mixed using a Tecan Carvo Omni™ automated pipettor. To mix, 150 uL of sample was aspirated and dispensed at 1 mL/s 0.5 mm from the bottom of the tube. This mixing cycle was repeated 30 times. All samples were then stained using an acridine orange (AO). AO was added to blood sample at a final concentration of 10 ug/mL, pipette mixed and incubated for 5 minutes at room temperature. A standard blood smear was performed on all samples. A coverslip was placed on top of the sample immediately following the blood smear to prevent sample drying out. Cells were imaged using the fluorescence setting on an Echo Revolve™ microscope. AO is a pH-sensitive cationic dye. When bound to double-stranded DNA (for example, in the nuclear compartment), the dye fluoresces green with an excitation maximum at 502 nm and emission maximum at 525 nm. When bound to single stranded DNA and RNA (for example, in the cytoplasm) or when the dye is in an acidic environment (for example, in lysosomes), the dye fluoresces red with an excitation maximum at 460 nm and emission maximum at 650 nm. […] Between five to eight different fields of view were captured. Images were analyzed using Image J and the number of platelets present in each field of view was manually counted. Error bars indicate standard deviation of the data set.
Particularly, fresh venipuncture blood samples were collected into EDTA and LiHep blood collection tubes as described above. Concentrated EDTA was dried for at least one hour at room temperature in microcentrifuge tubes using a vacuum drying oven. […] Both samples were pulse vortexed with three, ten-second bursts at the maximum vortex setting. Samples were then stained using acridine orange (AO). AO was added to blood sample at a final concentration of 10 ug/mL, pipette mixed and incubated for 5 minutes at room temperature. A standard blood smear was performed on all samples. A coverslip was placed on top of the sample immediately following the blood smear to prevent sample drying out. Cells were imaged using the fluorescence setting on an Echo Revolve™ microscope. AO is a pH-sensitive cationic dye. When bound to double-stranded DNA (for example, in the nuclear compartment), the dye fluoresces green with an excitation maximum at 502 nm and emission maximum at 525 nm. When bound to single stranded DNA and RNA (for example, in the cytoplasm) or when the dye is in an acidic environment (for example, in lysosomes), the dye fluoresces red with an excitation maximum at 460 nm and emission maximum at 650 nm. […] Between five to seven different fields of view were captured. Images were analyzed using Image J and the number of platelets present in each field of view was manually counted. Error bars indicate standard deviation of the data set.
To investigate the ability of citric acid to reverse platelet clumping, venipuncture blood samples were collected into EDTA and LiHep blood collection tubes as described above. […] A second 15 μL fraction of LiHep blood was treated with citric acid at a final concentration of 5 mM. To encourage platelet declump, samples were then vortexed. Samples were stained using acridine orange and imaged using an Echo Revolve™ Microscope at 20× magnification. Images were analyzed using Image J and the number of platelets present in each field of view (FOV) across 10 FOVs was manually counted.
Venipuncture blood samples were collected into EDTA and LiHep blood collection tubes as described above. A 15 μL aliquot of LiHep blood was treated with 5 mM NTA an vortexed vigorously.

## O=C(O)CN(CCN(CC(=O)O)CC(=O)O)CC(=O)O [EDTA, ethylenediaminetetraacetic acid]
White blood cells
  morphology of white blood cells: negatively impact
[1]; 17.6 mM EDTA (LiHep+EDTA)
  recovery of platelet counts: greater than 40%
[1]; 20 mM EDTA (LiHep+TruEDTA)
  recovery of platelet counts: greater than 40%
[1]; FIG. 3 legend, blood collected in LiHep tubes
  reversed platelet clumping as compared to control groups: about 40%
[2]
  platelet clumping following blood collection: no detectible platelet clumping

## Lithium heparin
[2]
  platelet clumping following blood collection: Significant amount of platelet clumping

## O=C(O)CC(O)(CC(=O)O)C(=O)O [citric acid, 2-hydroxypropane-1,2,3-tricarboxylic acid]
[3]
  declumping activity / increase in platelet count due to reversal of platelet clumping: increase in platelet count
[3]; listed as Citric acid
  declumping activity / increase in platelet count due to reversal of platelet clumping: showed declumping activity
[3]; FIG. 7, venipuncture LiHep blood, citric acid 5 mM, vortexed, 10 FOVs
  recovery of platelet counts: 66%

## O=C(O)CN(CC(=O)O)CC(=O)O [NTA, N,N-bis(carboxymethyl)glycine]
[3]
  declumping activity / increase in platelet count due to reversal of platelet clumping: showed declumping activity; also recorded: increase in platelet count
[3]; FIG. 8, venipuncture LiHep blood, 5 mM NTA, vortexed vigorously, 10 FOVs
  recovery of platelets: 71%
